{
  "source": "patent US9162992B2",
  "about": "“Compounds and compositions for treatment of breathing control disorders or diseases” (GALLEON PHARMACEUTICALS, INC., priority 2010, dated 2015)",
  "system": "hypercapnic ventilatory response",
  "experiment": "Hypercapnic ventilatory response (HCVR, 3% CO2), rat plethysmography",
  "format": "in vivo",
  "conditions": "for hypercapnia ventilatory response (HCVR): 3% CO2",
  "description": "A 1.5 mg/mL stock was created to give an infusion dose of 0.10 mg/kg/min. A separate 0.45 mg/mL stock was created to give an infusion dose of 0.03 mg/kg/min. All compound solutions and vehicles were titrated to have a pH between 4-8, using a pH paper and titrating with NaOH or HCl solution.\nMale Sprague-Dawley rats (Harlan, Inc.), 250-350 g at time of dosing, had been surgically prepared by Harlan to contain jugular vein cannulas. A 12 chamber plethysmography system with temperature/humidity compensation (Epstein et al., 1980, J. Apply Physiol. 49:1107-1115) from Buxco, Inc. (PLY 3223; Buxco, Inc, Wilmington, N.C., USA) using Biosystem XA software, v2.11.1 and a customized 12 site automated infusion system (Harvard Apparatus, Instech, Inc). Gas mixer (CWE Inc.) was used for this experiment to give concentrations of hypercapnia (3% CO2, 21% O2, balance nitrogen). Three tanks containing 100% O2, CO2, and nitrogen were attached to the gas mixer, with the customized gas mixture fed to each plethysmograph at a rate of 2 L/min.\nRat whole body plethysmography was used to evaluate and quantify minute ventilation and the pattern of breathing. A respiratory waveform was generated from the exchange of air between the animal and the chamber. This exchange induced changes in air volume that were measured with a pressure transducer, constituting the respiratory waveform (Lomask M., 2005, “Respiration measurement in the whole body plethysmography,” Buxco Inc., retrieved from http://www dot buxco dot com/downloads/LomaskWBP dot pdf). Atmospheric temperature and humidity were also measured using temperature and humidity probes that sampled chamber conditions. A compensation factor was then determined and applied to the respiratory waveform using a standardized algorithm (Epstein et al., 1980, J. Apply Physiol. 49:1107-1115) to compensate for respiratory conditioning, which was reported as the parameter COMP.\nAll animals were acclimated to plethysmography chambers for at least 1 hour, or until animals were no longer restless (up to 2 hours prior to data collection). Minute ventilation (MV) was calculated by the Biosystem XA software from direct measurements of tidal volume (TV) and respiratory frequency (f) using the formula MV=TV×f. Minute ventilation (mL/min) is a common endpoint for evaluating ventilatory performance. The protocol included compound (XXXVI) given as a 20 minute infusion, followed by a 20 minute exposure to 3% hypercapnia in addition to the compound (XXXVI) infusion. After 20 minutes of hypercapnia, the compound (XXXVI) infusion continued for an additional 10 minutes, resulting in a total compound (XXXVI) infusion time of 50 minutes. Each experiment included 6 animals receiving compound (XXXVI) (0.03 or 0.10 mg/kg/min) tested against 6 animals receiving vehicle, all of which were challenged with hypercapnia (3%). Animals were continuously monitored and observed for adverse behavioral effects. Such findings were recorded into laboratory notebooks for each individual animal tested.\nRespiratory data was collected on a breath-by-breath basis and averaged into 1 min time bins for data analysis. […] Each parameter was compared to vehicle in order to calculate percent difference, using area under the curve (AUC) and peak response values for each defined acquisition period using a customized visual basic restructure analysis macro (Lopotosky, S. Galleon Buxco Restructure tool, v5.2, 2008). All of the data analysis for the single, stand-alone studies was done using the restructure analysis macro (Lopotosky, S. Galleon Buxco Restructure tool, v5.2, 2008). All merged data analysis with both doses was performed in Graphpad Prism for MV, TV, and f only, for hypercapnia studies. Additionally, percent increase was calculated based on the cohort average immediately prior to the hypercapnic challenge to the group's peak response. For merged hypercapnia studies, t=62 to t=67 was used.",
  "data": [
    {"smiles": "CCCNc1nc(NCCC)nc(N(C)OC)n1.O=S(=O)(O)O", "note": "[XXXVI, N-(4,6-Bis-n-propylamino-[1,3,5]triazin-2-yl)-N,O-dimethyl-hydroxylamine hydrogen sulfate]", "values": [
      {"measurement": "facilitation of the HCVR", "setting": "0.03 mg/kg/min (same as vehicle group), t=62 to t=67", "value": 60, "unit": "%"},
      {"measurement": "respiration in naive animals", "setting": "0.03 mg/kg/min IV infusion", "value": "little or no effect"},
      {"measurement": "hypercapnia ventilatory response (HCVR)", "setting": "0.03 mg/kg/min", "value": "no effect"},
      {"measurement": "respiration in naive animals", "setting": "0.10 mg/kg/min IV infusion", "value": "stimulated respiration in naive animals"},
      {"measurement": "hypercapnia ventilatory response (HCVR)", "setting": "0.10 mg/kg/min", "value": "augmentation of the hypercapnia ventilatory response (HCVR)"},
      {"measurement": "increase in MV during the HCVR challenge", "setting": "0.10 mg/kg/min, t=62 to t=67, on top of elevated MV due to compound alone", "value": 44, "unit": "%"},
      {"measurement": "adverse clinical observations", "setting": "rats, doses tested", "value": "no adverse clinical observations"}
    ]}
  ]
}
